Results as given in patent US20250171821A1, “HIF-1 ACTIVATORS AND USES THEREOF” (Ramot at Tel-Aviv University Ltd., priority 2022, published 2025).
Entries after “also recorded” stand apart in the source; their conditions may differ.

Experiments:
mice = details: after dextran sulfate sodium-induced intestinal fibrosis; cited from earlier work
ischemic anastomoses = details: cited from earlier work
Bovine Dermal Fibroblast = experiment: Collagen-I immunofluorescence in bovine dermal fibroblasts; type: cell-based; details: 48 hours
Method: For microscopy images, cells were cultured in a 24-well plate and incubated with medium supplemented with the indicated concentrations of the treating entity (e.g., peptides or DFO) at 37° C. under 5% CO2. Cells were then washed additional three times with cold phosphate-buffered saline (PBS), following a 20 minute fixation in a 4% paraformaldehyde (PFA) in PBS and extensively washed three times with PBS to remove the PFA, followed by a 20 minute wash with blocking and penetration solution (PBS with 0.1% Triton X-100 and 2% BSA). Fixed cells were incubated with antibodies for 1 hour at 25° C., washed, and developed together with fluorescence-tagged secondary antibodies (Alexa 488 and 647, Abcam). Cell nuclei were stained with 1 mg/mL 4′,6-diamidino-2-phenylindole (DAPI Staining Solution ab228549, Abcam). Images were taken using a ZEISS LSM 900 in confocal mode, using Zen 3.1. Fluorescence readouts were obtained at ex/em of 358/461, 495/519 nm, and 652/668 nm for blue, green, and red, respectively.
Effect of Def16-EPAS1 on Collagen accumulation in Bovine Dermal Fibroblast—To test HIF mimicking peptide and its effect on Collagen accumulation in additional mammalian cells, the present inventors have examined the effect of the Def16-EPAS1 peptide on Bovine Dermal Fibroblast. […]

MG-63 cells [1] = experiment: Alizarin Red S staining of mineralization in MG-63 cells; type: cell-based, human
Method: (§1) The cultivation of MG-63 was performed in α-MEM growth medium (Sartorius). Osteogenic differentiation was performed by plating 20,000 cells/well into a sterile 24-well plate. Cells were left to adhere for 1 day and then switched to the osteogenic medium consisting of a minimum essential medium alpha (α-MEM) supplemented with 10% heat-inactivated FBS, 2 mM L-glutamine, 100 U/mL penicillin, 100 μg/mL streptomycin, 50 μM ascorbate-2-phosphate, and 10 mM β-glycerophosphate. Medium was changed every 2-3 days together with peptide supplementation. Seven to twenty-eight days after induction of differentiation, the production of extracellular calcified mineral matrix was visualized by Alizarin Red staining (Sigma) and Picrosirius Red (Scytek).
To visualize calcium deposition upon osteogenic differentiation, an Alizarin-red-S (Sigma) stock solution of 40 mM was used. Cells were washed three times with PBS and fixed in 1 mL of 4% PFA for 20 minutes at room temperature (RT). After fixation, cells were rinsed with double distilled water (DDW) and stained for 10 minutes in 1 mL Alizarin-red-S stock solution under continuous rotation. To diminish unspecific staining, cells were washed extensively three times with PBS. Stained samples were stored at 4° C. covered with PBS. […]

MG-63 cells [2] = experiment: Picrosirius red staining of collagen fibers in MG-63 cells; type: cell-based, human; details: 7 days, osteogenic differentiation medium plus peptide
Method: as §1
To visualize the extent of ECM formation, Picrosirius red dye was used to stain Collagen-I and Collagen-III. Treated cells were fixed with 4% PFA, washed with PBS and dried at 37° C. or at room temperature (RT) for overnight incubation. Then, the cells were stained with 400 μL of Sirius Red dye (0.1% in saturated picric acid) for 1 hour with mild shaking. The stained cell layers were then extensively washed with 0.01 N HCl to remove all non-bounded dye. After rinsing, photographs were taken under confocal microscope using polarized light.
Evaluation of Collagen fibers in MG-63 cells upon Def16-EPAS1 treatment—To evaluate the variation in Collagen fiber levels between normal MG-63 cells and MG-63 cells treated with the Def16-EPAS1 peptide, cells were supplemented to a 7-day incubation period with osteogenic differentiation medium (which includes 50 μg/mL ascorbic acid and 10 mM β-glycerophosphate), along with the addition of Def16-EPAS1 peptide. Collagen fibers were highlighted/stained by Picro-Sirius Red staining according to the manufacturer's instructions (FIG. 12). The PSR staining allows to clearly distinguish between Collagen-I and III fibers in cell culture. In the evaluation of polarizing colors of collagens fibers, Collagen-I and III were polarized with 488 nm and 647 nm wavelength, respectively, and visualized with the confocal microscope.

Compound | collagen deposition (mice) | levels of collagen (ischemic anastomoses) | Collagen fibril morphology (Bovine Dermal Fibroblast; higher peptide concentrations) | Collagen-I levels compared to baseline of nontreated cells (Bovine Dermal Fibroblast; peptide concentration above 10 μM) | deposition of calcium (mineralized nodules) (MG-63 cells [1]; 5 μM or 20 μM peptide, 7 days, osteogenic differentiation medium) | mineralizing matrix formation (Alizarin Red S and Picrosirius Red) (MG-63 cells [1]; 10 μM peptide, 7, 14, 21 and 28 days, differentiation medium) | Collagen-I fibers (MG-63 cells [2]) | Collagen-III fibers (MG-63 cells [2]) | Collagen-I fibers (MG-63 cells [2]; listed as DEF16-EPAS1) | Collagen-III fibers (MG-63 cells [2]; listed as DEF16-EPAS1)
COC(=O)CNC(=O)C(=O)OC [DMOG] | significant decrease in collagen deposition | increased levels of collagen |  |  |  |  |  |  |  | 
Def16-EPAS1: GRCRGFRRRCFCTTHCELDLETLAPYIPMDGEDFQL (SEQ ID NO: 3): Def16 cell penetrating sequence fused to the EPAS1 peptide (Def16-EPAS1; MOD_RES 1 Can be FITC-labeled; MOD_RES 3 Can be FITC-labeled; MOD_RES 10 Can be FITC-labeled; MOD_RES 12 Can be FITC-labeled; MOD_RES 16..17 Can be FITC-labeled; MOD_RES 19 Can be FITC-labeled; MOD_RES 21 Can be FITC-labeled; MOD_RES 30 Can be FITC-labeled; MOD_RES 32..33 Can be FITC-labeled; MOD_RES 36 Can be FITC-labeled) |  |  | thick fibril bundles of Collagen were observed | more than 2 fold | strong induction of deposition of calcium; also recorded: Typical mineralized nodules were observed | form a mineralizing matrix | over-production | over-production | enhanced levels | enhanced levels
